In BindingDB's records for doi:10.1016/j.bmcl.2019.02.028 (Indiana University School of Medicine, 2019):
pKd: −log10 of the molar value.

Molecular target: Chaperonin GroEL (Escherichia coli (strain K12), UniProt P0A6F5)
Assay: Binding affinity to Escherichia coli GroEL expressed in Escherichia coliDH5alpha by ITC assay

Chain of Chaperonin GroEL (P0A6F5 2-548 limits assumed): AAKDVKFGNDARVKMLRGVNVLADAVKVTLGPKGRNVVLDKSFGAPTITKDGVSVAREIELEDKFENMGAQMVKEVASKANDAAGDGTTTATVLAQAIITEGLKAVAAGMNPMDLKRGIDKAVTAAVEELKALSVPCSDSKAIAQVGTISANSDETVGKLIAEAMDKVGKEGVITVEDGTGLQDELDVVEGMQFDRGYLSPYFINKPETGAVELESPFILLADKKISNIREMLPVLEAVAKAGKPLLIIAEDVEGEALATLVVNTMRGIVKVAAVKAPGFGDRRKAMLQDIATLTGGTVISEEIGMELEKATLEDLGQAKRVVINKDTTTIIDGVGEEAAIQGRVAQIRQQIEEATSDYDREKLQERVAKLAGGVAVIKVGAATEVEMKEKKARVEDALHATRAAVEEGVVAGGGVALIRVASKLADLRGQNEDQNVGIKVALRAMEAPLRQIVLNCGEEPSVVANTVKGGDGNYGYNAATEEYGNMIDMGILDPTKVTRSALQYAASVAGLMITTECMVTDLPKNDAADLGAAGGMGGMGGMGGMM

pKd: 5.01
SMILES: CC1=CCC(C(=O)/N=C2\CC=C(S(=O)(=O)O)c3cc(S(=O)(=O)O)cc(S(=O)(=O)O)c32)=C/C1=N/C(=O)C1=CC=C/C(=N\C(=O)/N=C2\C=CC=C(C(=O)/N=C3/CC(C(=O)/N=C4\CC=C(S(=O)(=O)O)c5cc(S(=O)(=O)O)cc(S(=O)(=O)O)c54)=CC=C3C)C2)C1
